# Patent publication US20200392150A1, “Diaryl-B-Lactam Compound and Preparation Method and Pharmaceutical Use Thereof” (Fudan University, priority 2016, published 2020)
# Structures can show the parent of a compound that is named as a salt. Where two headings read alike, the source gives them in different places.
# Key:
# [1] = tested on: MDA-MB-231; experiment: In vitro cell growth inhibition assay (MTT); format: cell-based, human; details: read-out: IC50 MDA-MB-231
# Procedure: (§1) 5000 tumor cells per well were seeded into 96-well plate and allowed to adhere overnight. Cells were treated with various concentrations of tested compounds or DMSO (0.2%, as negative control) for 48 h. Then, the medium along with tested compounds or DMSO was discarded and […] per well MTT containing medium (0.5 mg/mL) was added. After incubation at 37° C. for 4 h, the MTT-containing medium was replaced by DMSO (150 μL per well) to dissolve the formazan crystals. Absorbance of the resulting solution was measured by microplate reader (Biotech ELx800) at 540 nm wavelength. Growth inhibition rates were calculated with the absorbance. Half maximal inhibitory concentration (IC50) of each compound was calculated using GraphPad Prism, version 6.0.
# [2] = tested on: Hela; experiment: In vitro cell growth inhibition assay (MTT); format: cell-based, human; details: 48 h, read-out: IC50 Hela
# Procedure: as §1
# [3] = tested on: A2780; experiment: In vitro cell growth inhibition assay (MTT); format: cell-based, human; details: read-out: IC50 A2780
# Procedure: as §1
# [4] = tested on: SKOV3; experiment: In vitro cell growth inhibition assay (MTT); format: cell-based, human; details: read-out: IC50 SKOV3
# Procedure: as §1
# [5] = MDA-MB-231 human breast cancer cell line, 48 h, MTT
# [6] = Hela human cervical cancer cell line, MTT
# [7] = A2780 human ovarian cancer cell line, 48 h, MTT
# [8] = SK-OV-3, SKOV-3 human ovarian cancer cell line, 48 h, MTT
Compound,melting point,"IC50 [1, 5]","IC50 [2, 6]","IC50 [3, 7]","IC50 [4, 8]","IC50 ([1]; Homo sapiens, MDA-MB-231, 48 h)","IC50 ([2]; Homo sapiens, HeLa)","IC50 ([3]; Homo sapiens, A2780, 48 h)","IC50 ([4]; Homo sapiens, SK-OV-3, 48 h)"
"C=C1C(=O)N(c2cc(OC)c(OC)c(OC)c2)[C@H]1c1ccc(OC)c(OS(=O)(=O)Cc2ccccc2)c1 (as salt: methanesulfonate) [Compound 32, (S)-2-methoxy-5-(3-methylene-4-oxo-1-(3,4,5-trimethoxyphenyl)azetidin-2-yl)phenyl phenylmethanesulfonate]",58 to 59 °C,,,,,,,,
"COc1ccc([C@@H]2N(c3cc(OC)c(OC)c(OC)c3)C(=O)C23CC3)cc1O [Compound 105, (S)-6-(3-hydroxy-4-methoxyphenyl)-5-(3,4,5-trimethoxyphenyl)-5-azaspiro[2.3]hexan-4-one]",,326 nM,436 nM,302 nM,388 nM,,,,
"COc1ccc([C@H]2[C@H](NC(=O)c3ccccc3)C(=O)N2c2cc(OC)c(OC)c(OC)c2)cc1O [Compound 78, N-((2S,3S)-2-(3-hydroxy-4-methoxyphenyl)-4-oxo-1-(3,4,5-trimethoxyphenyl)azetidin-3-yl)benzamide]",,47 nM,24 nM,27 nM,45 nM,,,,
"COC[C@@]1(OC)C(=O)N(c2cc(OC)c(OC)c(OC)c2)[C@H]1c1ccc(OC)c(O)c1 [Compound 81, (3R,4S)-4-(3-hydroxy-4-methoxyphenyl)-3-methoxy-3-(methoxymethyl)-1-(3,4,5-trimethoxyphenyl)azetidin-2-one]",,2650 nM,2560 nM,1750 nM,2470 nM,,,,
"C=C1C(=O)N(c2cc(OC)c(OC)c(OC)c2)[C@H]1c1ccc(OC)c(OCCCO)c1 [Compound 9, (S)-4-(3-(3-hydroxypropoxy)-4-methoxyphenyl)-3-methylene-1-(3,4,5-trimethoxyphenyl)azetidin-2-one]",,1920 nM,7470 nM,1540 nM,3030 nM,,,,
"COc1ccc([C@H]2[C@H](C)C(=O)N2c2cc(OC)c(OC)c(OC)c2)cc1N [Compound 104, (3S,4R)-4-(3-amino-4-methoxyphenyl)-3-methyl-1-(3,4,5-trimethoxyphenyl)azetidin-2-one]",,32 nM,37 nM,20 nM,25 nM,,,,
"C=C1C(=O)N(c2cc(OC)c(OC)c(OC)c2)[C@H]1c1ccc(OC)c(OS(=O)(=O)Cc2ccccc2)c1 [Compound 32, (S)-2-methoxy-5-(3-methylene-4-oxo-1-(3,4,5-trimethoxyphenyl)azetidin-2-yl)phenyl phenylmethanesulfonate]",,> 20000 nM,> 20000 nM,7340 nM,8660 nM,,,,
"C=C1C(=O)N(c2cc(OC)c(OC)c(OC)c2)[C@@H]1c1ccc(OC)c(O)c1 [Compound 98, (R)-4-(3-hydroxy-4-methoxyphenyl)-3-methylene-1-(3,4,5-trimethoxyphenyl)azetidin-2-one]",,> 20000 nM,> 20000 nM,> 20000 nM,> 20000 nM,,,,
"COc1ccc([C@H]2[C@H](NC(C)=O)C(=O)N2c2cc(OC)c(OC)c(OC)c2)cc1O [Compound 77, N-((2S,3S)-2-(3-hydroxy-4-methoxyphenyl)-4-oxo-1-(3,4,5-trimethoxyphenyl)azetidin-3-yl)acetamide]",,47 nM,35 nM,33 nM,32 nM,,,,
"COc1ccc([C@@H]2[C@H](C)C(=O)N2c2cc(OC)c(OC)c(OC)c2)cc1O [Compound 101, (3S,4S)-4-(3-hydroxy-4-methoxyphenyl)-3-methyl-1-(3,4,5-trimethoxyphenyl)azetidin-2-one]",,5140 nM,3920 nM,5750 nM,3270 nM,,,,
"COc1ccc([C@H]2/C(=C/c3ccccc3)C(=O)N2c2cc(OC)c(OC)c(OC)c2)cc1O [Compound 57, (S,Z)-3-benzylidene-4-(3-hydroxy-4-methoxyphenyl)-1-(3,4,5-trimethoxyphenyl)azetidin-2-one]",,3160 nM,4730 nM,2540 nM,2990 nM,,,,
"COc1ccc([C@H]2[C@H](n3cc(CO)nn3)C(=O)N2c2cc(OC)c(OC)c(OC)c2)cc1O [Compound 61, (3S,4S)-4-(3-hydroxy-4-methoxyphenyl)-3-(4-(hydroxymethyl)-1H-1,2,3-triazol-1-yl)-1-(3,4,5-trimethoxyphenyl)azetidin-2-one]",,28 nM,33 nM,15 nM,83 nM,,,,
"CCOC(=O)CO[C@H]1C(=O)N(c2cc(OC)c(OC)c(OC)c2)[C@H]1c1ccc(OC)c(O)c1 [Compound 65, ethyl 2-(((2S,3R)-2-(3-hydroxy-4-methoxyphenyl)-4-oxo-1-(3,4,5-trimethoxyphenyl)azetidin-3-yl)oxy)acetate]",,672 nM,669 nM,423 nM,721 nM,,,,
"C=C1C(=O)N(c2cc(OC)c(OC)c(OC)c2)[C@H]1c1ccc(OC)c(OS(=O)(=O)c2ccc(NC(C)=O)cc2)c1 [Compound 30, (S)-2-methoxy-5-(3-methylene-4-oxo-1-(3,4,5-trimethoxyphenyl)azetidin-2-yl)phenyl 4-acetamidobenzenesulfonate]",,15800 nM,15900 nM,12200 nM,12000 nM,,,,
"COc1ccc([C@H]2[C@@H](OC(=O)CCC(=O)O)C(=O)N2c2cc(OC)c(OC)c(OC)c2)cc1O [Compound 64, 4-(((2S,3R)-2-(3-hydroxy-4-methoxyphenyl)-4-oxo-1-(3,4,5-trimethoxyphenyl)azetidin-3-yl)oxy)-4-oxobutanoic acid]",,102 nM,178 nM,79 nM,210 nM,,,,
"COc1ccc([C@@H]2N(c3cc(OC)c(OC)c(OC)c3)C(=O)[C@]2(O)CO)cc1O [Compound 80, (3R,4S)-3-hydroxy-4-(3-hydroxy-4-methoxyphenyl)-3-(hydroxymethyl)-1-(3,4,5-trimethoxyphenyl)azetidin-2-one]",,4470 nM,3420 nM,1770 nM,3000 nM,,,,
"C=C1C(=O)N(c2cc(OC)c(OC)c(OC)c2)[C@H]1c1ccc(OC)c(OC(=O)[C@@H](NC(=O)OC(C)(C)C)C(C)C)c1 [Compound 36, (S)-2-methoxy-5-((S)-3-methylene-4-oxo-1-(3,4,5-trimethoxyphenyl)azetidin-2-yl)phenyl 2-((tert-butoxycarbonyl)amino)-3-methylbutanoate]",,506 nM,501 nM,505 nM,496 nM,,,,
"COc1ccc([C@@H]2[C@@H](C)C(=O)N2c2cc(OC)c(OC)c(OC)c2)cc1O [Compound 102, (3R,4S)-4-(3-hydroxy-4-methoxyphenyl)-3-methyl-1-(3,4,5-trimethoxyphenyl)azetidin-2-one]",,1080 nM,807 nM,771 nM,650 nM,,,,
"COc1ccc([C@H]2[C@@H](CN(C)C)C(=O)N2c2cc(OC)c(OC)c(OC)c2)cc1O [Compound 62, (3R,4R)-3-((dimethylamino)methyl)-4-(3-hydroxy-4-methoxyphenyl)-1-(3,4,5-trimethoxyphenyl)azetidin-2-one]",,> 20000 nM,> 20000 nM,7720 nM,> 20000 nM,,,,
"COc1ccc([C@H]2[C@@H](CNCc3ccccc3)C(=O)N2c2cc(OC)c(OC)c(OC)c2)cc1O [Compound 63, (3R,4R)-3-((benzylamino)methyl)-4-(3-hydroxy-4-methoxyphenyl)-1-(3,4,5-trimethoxyphenyl)azetidin-2-one]",,1790 nM,2270 nM,1020 nM,1670 nM,,,,
"COc1ccc([C@H]2[C@@H](CC[Si](C)(C)C)C(=O)N2c2cc(OC)c(OC)c(OC)c2)cc1O [Compound 59, (3R,4R)-4-(3-hydroxy-4-methoxyphenyl)-1-(3,4,5-trimethoxyphenyl)-3-(2-(trimethylsilyl)ethyl)azetidin-2-one]",,6440 nM,9140 nM,7540 nM,5630 nM,,,,
"C=C1C(=O)N(c2cc(OC)c(OC)c(OC)c2)[C@H]1c1ccc(OC)c(OCCN(C)C)c1 [Compound 14, (S)-4-(3-(2-(dimethylamino)ethoxy)-4-methoxyphenyl)-3-methylene-1-(3,4,5-trimethoxyphenyl)azetidin-2-one]",,,,,,> 10000 nM,> 10000 nM,> 10000 nM,> 10000 nM
"C=C1C(=O)N(c2ccc(OC)cc2OC)[C@H]1c1ccc(OC)c(O)c1 [Compound 50, (S)-1-(2,4-dimethoxyphenyl)-4-(3-hydroxy-4-methoxyphenyl)-3-methyleneazetidin-2-one]",,291 nM,894 nM,234 nM,513 nM,,,,
"COc1ccc([C@H]2/C(=C\C[Si](C)(C)C)C(=O)N2c2cc(OC)c(OC)c(OC)c2)cc1O [Compound 54, (S,E)-4-(3-hydroxy-4-methoxyphenyl)-1-(3,4,5-trimethoxyphenyl)-3-(2-(trimethylsilyl)ethylidene)azetidin-2-one]",,> 10000 nM,> 10000 nM,> 10000 nM,> 10000 nM,,,,
